The subject of one assay is COS7 cells. Nature of the assay: COS7 cell survival following serum deprivation (Trypan blue uptake). The format is cell-based. Conditions: 5 nM peptide. The protocol: To gain insight into the binding of TUF1[43-54] peptide and p75^NTR, serum deprivation was used as a stressor to COS7 cells transfected with pCMV-SPORT6-p75 expression vector. COS7 cells were seeded at 15,000 cells/well in 12-well plates, transfected with 300 ng pCMV-eGFP (control) or 300 ng pCMV-SPORT6-p75, and incubated overnight. Cells were then incubated in serum-free medium or serum-free medium supplemented with 5 nM TUF1[43-54]. Cells were assessed for Trypan blue dye uptake at 24, 48, and 72 hours.
Immediately after removing growth medium, cells were rinsed with PBS and incubated in 100 μl 0.4% Trypan blue dye diluted in PBS. Images of cells were captured at 10× magnification using an inverted microscope equipped with a CCD camera. Trypan blue-positive cells were counted using Adobe Photoshop CS3 (Adobe Systems Inc., San Jose, Calif.). Graphs and statistics were performed using Prism Graphpad 4.0 (GraphPad Software Inc., San Diego, Calif.).

In assay [1] the test system is primary culture hypothalamic neurons. Nature of the assay: Activated-Caspase 3 expression in serum-deprived primary cultured hypothalamic neurons. Format: cell-based, mouse. The following applies: 48-hour serum deprivation; 50 nM TUF1[43-54] or 500 ng/ml anti-TUF1[43-54] IgG; preliminary qualitative analysis. The protocol: Gestational day 16.5 mouse embryos were collected from deeply anesthetized pregnant dam (i.p. injection of 10 mg/Kg Beuthanasia). Embryos were placed in HAM F12+10% Fetal Calf Serum (FCS)+1 mg/ml glucose. Whole brains were dissected and placed in a dish containing Phosphate Buffer Saline (PBS)+1 mg/ml glucose+10 mM HEPES. Hypothalami were dissected from embryonic brains and placed into a conical tube containing 2 ml HAM F12+10 mg/ml Glucose+10 mM HEPES. Cells were dissociated by pipetting and then centrifuged at 200×g for 5 minutes. Cells were suspended in culture medium (HAM F12+10% FCS+10 mg/ml glucose+10 mM HEPES+[…]) and plated at 200,000 cells/25 mm flask. Plated cells were incubated for four days in humidified incubator maintained at 37° C. and 5% CO2 (NuAire NU-8600, NuAire, Inc., Plymouth, Minn.).
To gain insight into the survival effect of TUF1[43-54] polypeptide, serum deprivation was used as a stressor. […] Cells were assessed for activated-Caspase 3 expression by immunocytochemistry after 48-hour incubation.
Cultured cells were rinsed with PBS (2×), fixed with 4% Paraformaldehyde (5 minutes) and permeabilized with PBS+0.1% Tween-20 (PBST). […] Excess antibody was removed by PBST and labeled cells were detected using IMMPACT DAB chromogen (Vector Laboratories, Inc., Burlingame, Calif.) per manufacturer's recommendation.

Here are results for one sequence from US20120269815A1, “NEUROTROPHINS AND USES THEREOF” (Regents of the University of Minnesota, priority 2008, published 2012).

“Also recorded” adds a separate entry of the source. No end group written: not given here.

In the case of AYKSYVRALPLL [TUF1[43-54]], the “survival benefit of peptide in presence of p75^NTR” value in the assay on COS7 cells (COS7 cells transfected with pCMV-SPORT6-p75, serum deprivation) is “removed the survival benefit”. In addition, in the assay with COS7 cells (Trypan blue-positive cells at 24, 48, 72 hours, control-transfected COS7 cells), the “cell survival / cell death following serum deprivation” value is listed as “promotes cell survival; also recorded: reduces in vitro cell death following serum deprivation”. Besides, in assay [1], the “cell death (activated-Caspase 3) following serum-deprivation” value is given as “fewer cell death”.
